Test results from PubChem BioAssay AID720589 (Broad Institute, 2013).

These compounds were tested on HepG2 viability, ATP luminescence (CellTiter-Glo), 72 h (assay: ATP-based viability loss in HepG2 cells – cell-based, CellTiter-Glo luminescence, cherry-pick, set 3, cytotoxicity control, dose response (AID 720589)).

Row | Compound | AC35 [µM]
1 | CC1OC(OC2CC(O)C3(CO)C4C(O)CC5(C)C(C6=CC(=O)OC6)CCC5(O)C4CCC3(O)C2)C(O)C(O)C1O (centres undefined) | 0.129
2 | CC12CCC(O)CC1CCC1C2CCC2(C)C(C3=CC(=O)OC3)CCC12O (centres undefined) | 1.17
3 | C[C@@H]1CN([C@@H](C)CO)C(=O)Cc2cc(NC(=O)C3CCCCC3)ccc2O[C@H]1CN(C)Cc1ccc(C(=O)Nc2ccccc2N)cc1 | 0.83
4 | O=C(NC(c1ccc(F)cc1)c1ccc2ccccc2n1)C1CCN(Cc2cccc(C(F)(F)F)c2)CC1 (centres undefined) | 20
5 | O=c1c2ccccc2nc(/C=C/c2cc(Br)ccc2O)n1CCCO | 6.52
6 | CCCCOc1ccc(NC(=O)C(=O)NCCCn2ccnc2)cc1 | 13.7
7 | CN1C(=O)c2cc(NC(=O)c3ccc(C(F)(F)F)cc3)ccc2OC[C@@H]2O[C@@H](CC(=O)NC3Cc4ccccc4C3)CC[C@H]21 | 7.45
8 | CCOC(=O)[C@]12Cc3ccc(C)cc3[C@H]1N(C1CCCCC1)C(=O)c1ccccc12 | 3.95
9 | Cc1cccc(CN2C(=O)/C(=C\c3ccc(C(=O)NCCCN4CCN(C)CC4)cc3)Oc3ccccc32)c1 | 11.2
10 | COc1ccc2cc(C(N)=O)/c(=N\NC(=O)c3ccccc3)oc2c1 | 17.2
11 | Cc1nc(N)nc(N)c1/C=C/C(C)(C)c1ccc(Cl)cc1 | < 0.011
12 | Nc1nc(=S)c2[nH]cnc2[nH]1 | 1.81
13 | C[C@@H]1CN([C@@H](C)CO)C(=O)c2cccc(NS(=O)(=O)c3ccc(F)cc3)c2O[C@@H]1CN(C)Cc1ccc(C(=O)Nc2ccccc2N)cc1 | 1.45
14 | O=C(c1nnsc1S(=O)c1ccc(Cl)cc1)N1CCOCC1 (centres undefined) | 7.87
15 | Oc1[nH]c2ccc(Br)cc2c1N=NC(=S)N1CCOCC1 | 2.9
16 | CCCCCCCCCCCCCCCCn1cc[n+](C)c1 | 4.54
17 | C[C@@H]1CCCCO[C@H](CN(C)Cc2ccc(C(F)(F)F)cc2)[C@H](C)CN([C@H](C)CO)C(=O)c2cc(NC(=O)CCCN(C)C)ccc2O1 | 9.15
18 | COc1ccc(NC(=O)N2CCCCN3[C@H](CO)[C@H](c4ccc(C#CCC(C)C)cc4)[C@H]3C2)cc1 | 8.68
19 | CN=c1scc(-c2ccccc2F)n1/N=C/c1ccc[nH]1 | 0.638
20 | C[C@H]1O[C@@H](O[C@H]2[C@@H](O)C[C@H](O[C@H]3[C@@H](O)C[C@H](O[C@H]4CC[C@@]5(C)[C@H](CC[C@@H]6[C@@H]5C[C@@H](O)[C@]5(C)[C@@H](C7=CC(=O)OC7)CC[C@]65O)C4)O[C@@H]3C)O[C@@H]2C)C[C@H](O)[C@@H]1O | 0.155
21 | Nc1nc(N)c2c(ccc3nccc32)[nH]1 | 4.84
22 | COc1cc(C(=O)N2CCC(N3CCN(C)CC3)CC2)ccc1Nc1ncc2c(n1)N(C)c1ccccc1C(=O)N2C | 11.4
23 | CN(C[C@H]1N[C@@H](CO)[C@@H]1c1ccc(C2=CCCC2)cc1)C(=O)c1ccc(F)cc1 | 4.57

Row | Compound | AC35 [µM]
24 | C=C1C(=O)C=C[C@]2(C)C[C@@H]3OC(=O)[C@](C)(O)[C@H]3C[C@@H]12 | 11.8
25 | CCN1C/C(=C/c2ccc(N3CCOCC3)cc2)C(=O)/C(=C/c2ccc(N3CCOCC3)cc2)C1 | 10.5
26 | COc1ccc([Si](C)(C)[C@H]2[C@H](CCO)O[C@@]3(C(=O)N(c4ccccc4)c4ccccc43)[C@@H]2C)cc1 | 10.5
27 | C[C@H](CO)N1C[C@H](C)[C@H](CN(C)Cc2ccc(C(=O)Nc3ccccc3N)cc2)Oc2ccc(N(C)C)cc2C1=O | 18.2
28 | C[C@@H]1O[C@@H](O[C@@H]2C=C3CC[C@@H]4C(CC[C@]5(C)[C@@H](c6ccc(=O)oc6)CC[C@]45O)[C@@]3(C)CC2)[C@H](O)[C@H](O)[C@H]1O (some centres undefined) | 0.0735
29 | C/C(=C\c1ccccc1)C(=O)N1CCC=CC1=O | 4.88
30 | CN(C)c1ccc(C=c2c3ccccc3n3c2c2c([n+]3C)CCCC2)cc1 | 2.14
31 | C(=N\Nc1nc2ccccc2[nH]1)/c1ccccn1 | 7.93
32 | C[C@@H]1CN([C@H](C)CO)S(=O)(=O)c2ccc(C#CC(C)(C)O)cc2O[C@H]1CN(C)Cc1ccc(-c2ccccc2)cc1 | 6.19
33 | O=c1ccc2ccccc2c2ccccc12 | 15.5
34 | COC1C(O)C(C)OC(OC2CCC3(C)C(CCC4C3C(O)CC3(C)C(C5=CC(=O)OC5)CCC43O)C2)C1O (centres undefined) | 0.204
35 | COc1cc2c(cc1OC)C(C)N(C(=O)c1cc(Cl)nc(Cl)c1)CC2 (centres undefined) | 12.3
36 | C[C@@H]1CN([C@H](C)CO)C(=O)c2cccc(N(C)C)c2O[C@@H]1CN(C)Cc1ccc(C(=O)Nc2ccccc2N)cc1 | 3.05
37 | COc1ccc(/C=C/C(=O)c2cc(F)ccc2OC(=O)c2ccccc2OC)cc1OC | 13.9
38 | C[C@@H]1CN([C@H](C)CO)C(=O)Cc2cc(NC(=O)CCCCCC(=O)Nc3ccccc3N)ccc2O[C@@H]1CN(C)CC1CCCCC1 | 1.93
39 | COc1cc2c(cc1NC(=O)CN(C)Cc1ccc(OC)c(OC)c1)oc1ccccc12 | 15.6
40 | Cc1ccc(C)c(S(=O)(=O)N2CCN(c3ncnc4sccc34)CC2)c1 | 4.76
41 | CCCN1C/C(=C/c2ccc3c(c2)OCO3)C(=O)/C(=C/c2ccc3c(c2)OCO3)C1 | 12.5
42 | CN(C)c1ccc(N=Nc2nc3ccccc3n2C)cc1 | 12
43 | CN(Cc1cnc2nc(N)nc(N)c2n1)c1ccc(C(=O)N[C@@H](CCC(=O)O)C(=O)O)cc1 | 0.0224
44 | C[C@H]1CN([C@@H](C)CO)C(=O)c2cc(NC(=O)C3CCCCC3)ccc2O[C@H]1CN(C)Cc1ccc(C(=O)Nc2ccccc2N)cc1 | 1.47
45 | O=C(Nc1ccccc1F)N1CCCCN2[C@H](CO)[C@H](c3ccc(/C=C/c4ccccc4)cc3)[C@H]2C1 | 4.41
46 | Cc1ccc(C(=O)O/N=C(\N)c2ccccn2)cc1 | 13.2

Row | Compound | AC35 [µM]
47 | COc1cc(/C=N/NC(=O)c2csc3c2CCCC3)cc(OC)c1O | 20
48 | O=C(N/N=C/c1cnc(N2CCCCC2)s1)c1ccc(C(F)(F)F)cc1 | 14.1
49 | Nc1cc2c(cc1Br)[nH]c(=O)c1ccccc12 | 19.2
50 | CCCCCCCN(c1ccccc1)[C@@H]1C[C@H]2CCCC(=O)N3CC[C@@H](C1)[C@@H]23 | 17.3
51 | CO[C@H]1CN(C)C(=O)c2ccc(NC(=O)c3ccc(-c4ccccc4)cc3)cc2OC[C@H](C)NC[C@H]1C | 6.36
52 | Cc1cc(C)c2sc(NNC(=O)c3ccc(S(=O)(=O)N4CCc5ccccc5C4)cc3)nc2c1 | 3.76
53 | O=C1NC(=O)N(Cc2ccccc2)C(=O)/C1=C\C=C\c1ccco1 | 5.18
54 | C[C@@H]1CN([C@@H](C)CO)C(=O)Cc2cc(NS(=O)(=O)c3cccs3)ccc2O[C@H]1CN(C)Cc1ccc(Cl)c(Cl)c1 | 0.901
55 | Nc1ccn([C@@H]2O[C@H](CO)[C@@H](O)C2O)c(=O)n1 (some centres undefined) | 0.477
56 | C[C@@H]1CN([C@H](C)CO)C(=O)c2cc(NC(=O)Nc3ccccc3)ccc2O[C@@H]1CN(C)Cc1ccc(C(=O)Nc2ccccc2N)cc1 | 8.38
57 | N#CC(=C1C=CC(=NO)C(Cl)=C1)c1ccccc1 | 2.66
58 | Cc1ccc(OCCNC(=O)c2cccc(S(=O)(=O)NCc3ccccc3)c2)cc1 | 19.3
59 | C[C@]12CCC3C(CCC4=CC(O)CC[C@@]43/C=N/O)C1(O)CCC2C1=CC(=O)OC1 (some centres undefined) | 1.57
60 | O=C(O)c1ccc(N/N=C/c2ccc3c(c2)OCO3)cc1 | 5.97
61 | CC(=O)OC1CC2(O)C3CCC4CC(O)CCC4(C)C3CCC2(C)C1C1=CC(=O)OC1 (centres undefined) | 0.602
62 | Oc1c(C(c2ccc(Cl)cc2)N2CCCC2)cc(Cl)c2cccnc12 (centres undefined) | 17.3
63 | O=C(N/N=C/c1cccs1)c1n[nH]c2c1CCCC2 | 17.7
64 | Cc1nc(N)nc(N)c1CCCc1ccc(Cl)c(Cl)c1 | 0.761
65 | CN1C/C(=C/c2ccsc2)C(=O)/C(=C/c2ccsc2)C1 | 13.7
66 | C[C@H]1CN([C@@H](C)CO)C(=O)c2cccc(NC(=O)CCCCCC(=O)Nc3ccccc3N)c2O[C@@H]1CN(C)Cc1ccc2c(c1)OCO2 | 10.5
67 | C[C@@H]1CN([C@@H](C)CO)C(=O)c2cc(NC(=O)Nc3ccccc3)ccc2O[C@@H]1CN(C)Cc1ccc(C(=O)Nc2ccccc2N)cc1 | 2.69
68 | COC(=O)C[C@@H]1CC[C@@H]2[C@@H](COc3ccc(NC(=O)Nc4ccc(C#N)cc4)cc3C(=O)N2C)O1 | 14.4
69 | CN1C2CCC1/C(=C/c1ccccn1)C(=O)/C2=C\c1ccccn1 | 1.27

Row | Compound | AC35 [µM]
70 | Cn1ccc2cc(-c3ccc4ncnc(NCc5cccs5)c4c3)ccc21 | 16.6
71 | CCCCc1c(-c2ccccc2OC)ncn1Cc1ccc(C(C)(C)C)cc1 | 8.48
72 | COC1C(C)OC(OC2CC(C)(O)Cc3cc4c(c(O)c32)C(=O)c2c(O)cc3c(c2C4=O)OC2OC3(C)C(O)C(N(C)C)C2O)C(OC)C1(C)OC (centres undefined) | 0.133
73 | O=C(C1CC1)N1C[C@@H]2N[C@H](C1)C2c1ccc(/C=C/c2ccccc2)cc1 (some centres undefined) | 10.7
74 | C[C@@H]1CCCCO[C@H](CN(C)Cc2ccc(C(=O)Nc3ccccc3N)cc2)[C@@H](C)CN([C@H](C)CO)C(=O)c2cc(NS(=O)(=O)c3ccc(Cl)cc3)ccc2O1 | 9.81
75 | COc1ccc(C(CCNCc2ccc(OC(C)C)cc2)C(C)C)cc1 (centres undefined) | 9.44
76 | CC1(C)N=C(N)N=C(N)N1c1ccc(OCCCOc2ccccc2)c(Cl)c1 | 9.77
77 | C[C@H]1CN([C@@H](C)CO)C(=O)c2cc(N(C)C)ccc2O[C@H]1CN(C)Cc1ccc(C(=O)Nc2ccccc2N)cc1 | 0.298
78 | Oc1cccc(-c2nnc(-c3cccc(O)c3)nn2)c1 | 17.5
79 | OC[C@H]1O[C@@H](n2cnc3c(NCc4ccco4)ncnc32)[C@H](O)[C@@H]1O | 12.1
80 | COc1ccc(S(=O)(=O)Nc2cccc3c2O[C@H](CN(C)Cc2ccc(C(=O)Nc4ccccc4N)cc2)[C@H](C)CN([C@@H](C)CO)C3=O)cc1 | 4.44
81 | Cc1ccc(S(=O)(=O)Nc2ccc3c(c2)C(=O)N([C@@H](C)CO)C[C@H](C)[C@@H](CN(C)Cc2ccc(C(F)(F)F)cc2)OCCCC[C@@H](C)O3)cc1 | 13.2
82 | CN=c1scc(-c2cccs2)n1/N=C/c1ccccc1O | 20.8
83 | CC(C)(C)[S@](=O)N1Cc2cc(C(=O)NCC(F)(F)F)nc(-c3cccc(-c4cccc(F)c4)c3)c2[C@@H]1CCO | 0.139
84 | CCOc1cc(/C=N/Nc2cc(C)nc(-n3nc(C)cc3C)n2)ccc1O | 1.14
85 | O=C(CCc1ccccc1)NC(c1cccs1)c1cc(Cl)c2cccnc2c1O (centres undefined) | 7.07
86 | C=C1C(=O)O[C@@H]2[C@H]1[C@@H](OC(=O)/C(C)=C/C)C/C(C)=C\C(=O)/C=C(\C)[C@@H]2O | 12.5
87 | C[C@@H]1CN([C@@H](C)CO)C(=O)c2cc(NS(=O)(=O)c3ccccc3)ccc2O[C@@H]1CN(C)Cc1ccc(C(=O)Nc2ccccc2N)cc1 | 7.52
88 | CC(=NNc1cc(C)c2ccccc2n1)c1ccccn1 | 2.66
89 | Cc1cc2c(C(C)C)c(O)c(O)c(C=O)c2c(O)c1-c1c(C)cc2c(C(C)C)c(O)c(O)c(C=O)c2c1O | 13.7
